What was measured:
Assay type in all cases: cell-based, Human
LNCaP cells = experiment: LNCaP cell proliferation, MTS assay
Procedure: (§1) Human prostate cancer cell line, LNCaP (American Type Culture Collection (ATCC), Manassas, Va.), was grown in RPMI 1640 medium (Mediatech, Herndon, Va.) supplemented with 5% fetal bovine serum (FBS) and 5% CO2 at 37° C. until reaching approximately 50-70% confluence. The media were changed to serum-free RPMI 1640 at 24 hours prior to experiments being performed to deplete undesired steroids. […] Equivalent amounts of solvent were added to control cells.
(§2) Five days later, cell proliferation was measured by MTS assay kit (Promega, Madison, Wis.), and PSA and hK2 levels in spent media were determined by the Tandem-E PSA kit (Hybritech Inc., San Diego, Calif.) or Mayo's hK2 assay (Zhang et al., 1999, Endocrin., 140:1665-71).

androgen receptor = experiment: Immunocytochemical staining, whole cell androgen receptor in LNCaP cells; conditions: Mib alone versus absence of androgens
Procedure: Twenty-four hrs later, LNCaP cell slides were washed with 1×PBS, and fixed in acetone at −20° C. for 10 min. The air-dried slides were treated with EtOH/chloroform (1:1) mixture for 5 min to permeate the cell membrane and air-dried again. The slides were washed with 1×TBST and stained with a monoclonal antibody against the human androgen receptor (Pharmingen) using a DAKO kit (DAKO). The androgen receptor staining was observed using microscopy (Zeiss, Thornwood, N.Y.). The density of androgen receptor in a nucleus (or a whole cell) and the area of the nucleus or the whole cell were quantified by KS400 software (Zeiss) provided by the Mayo Molecular Core Facility. The androgen receptor protein level in a nucleus or a whole cell was calculated by multiplication of the density of androgen receptor in the nucleus or the whole cell with the area of the nucleus or the whole cell, respectively. In each sample, 20 to 25 cells were analyzed. All results were analyzed by 2-tailed Student's t-test. A p<0.05 was accepted as the level of significance.

PSA = PSA level in spent media of LNCaP cells (Tandem-E PSA kit); conditions: 1 nM Mib, five days
Procedure: as §1, §2

hK2 = hK2 level in spent media of LNCaP cells (Mayo's hK2 assay); conditions: 1 nM Mib, five days
Procedure: as §1, §2

FKBP51 = FKBP51 protein level, Western blot in LNCaP cells; conditions: 1 nM Mib, 24 hrs
Procedure: Cells were harvested and the whole cell lysate and nuclear extract were prepared as described (Zhu et al., 1999, Endocrin., 140:5451-4). Western blotting analysis was performed according to the protocol described (Id). A mouse antibody against human FKBP51 (1:5,000 dilution) (a gift from Dr. David Toft, Mayo Clinic), the human androgen receptor (1:1000 or 1:2000 dilution) (Pharmingen, San Diego, Calif.) or human Sp1 (1:2000 dilution) (Santa Cruz, Santa Cruz, Calif.) was used as the primary antibody. Ponceau S staining was used for monitoring protein loading and transfer efficiency (Mitchell et al., 1999, Cancer Res., 59:5892-5).

Compound | LNCaP cell growth in the presence of Mib (LNCaP cells; 1 nM Mib alone) | androgen receptor level (androgen receptor) | androgen-stimulated cell growth (LNCaP cells; 1 nM Mib, five days, MTS) | androgen-stimulated cell growth at 75 μM (LNCaP cells; 1 nM Mib, silibin 75 μM) | cell proliferation in the absence of Mib (LNCaP cells; no Mib, five days, MTS) | PSA accumulation stimulated by androgens (PSA) | hK2 accumulation stimulated by androgens (hK2) | androgen-induced FKBP51 protein level (FKBP51)
C[C@@H]1CC2=CC(=O)CC[C@@H]2[C@H]2CC[C@@]3(C)[C@@H](CC[C@]3(C)O)[C@@H]21 [Mib, mibolerone, reference compound] | increased significantly | increased the androgen receptor level significantly | – | – | – | – | – | –
COc1cc(C2Oc3cc([C@H]4Oc5cc(O)cc(O)c5C(=O)[C@@H]4O)ccc3OC2CO)ccc1O (some centres unmarked) [silibin] | – | – | inhibited | fully suppressed | neither silymarin or silibin affected | inhibited | inhibited | reduced
